From ChEMBL document CHEMBL1148195, “Chemical investigation of predator-deterred macroalgae from the Antarctic peninsula” (2004)
The source made the active and inactive calls. The calls are words filed in the database; no cut-off is given here.

Tests used:
Type in all cases: functional
Candida albicans = assay: Antimicrobial activity against Candida albicans 54 at 200 ug/spot after 18 hrs by agar diffusion method
Escherichia coli = assay: Antibacterial activity against permeability mutant Escherichia coli 389 at 200 ug/spot after 18 hrs by agar diffusion method
Staphylococcus aureus [1] = assay: Antibacterial activity against methicillin-sensitive Staphylococcus aureus 375 at 200 ug/spot after 18 hrs by agar diffusion method
Staphylococcus aureus [2] = assay: Antibacterial activity against methicillin-resistant Staphylococcus aureus 310 at 200 ug/spot after 18 hrs by agar diffusion method
Enterococcus faecium = assay: Antibacterial activity against vancomycin-resistant Enterococcus faecium 379 at 200 ug/spot after 18 hrs by […]

Row | Structure (SMILES) | inhibition zone (IZ) (Candida albicans) [mm] | inhibition zone (IZ) (Escherichia coli) [mm] | inhibition zone (IZ) (Staphylococcus aureus [1]) [mm] | inhibition zone (IZ) (Staphylococcus aureus [2]) [mm] | inhibition zone (IZ) (Enterococcus faecium) [mm] | Activity (Escherichia coli) | Activity (Candida albicans) | Activity (Staphylococcus aureus [1]) | Activity (Staphylococcus aureus [2]) | Activity (Enterococcus faecium)
1 | C[C@@](Cl)(/C=C/Br)[C@H]1CO[C@@](C)(O)[C@@H](Br)C1 | 8 | – | – | – | – | – | – | – | – | –
2 | CCC[C@@H](OC(C)=O)C1=C(Br)/C(=C\Br)OC1=O [ACETOXYFIMBROLIDE] | 17 | 9 | 24 | 25 | 16 | – | – | – | – | –
3 | CC(C)(Br)[C@@H](Cl)C[C@H](Br)[C@](C)(Cl)/C=C/Br [ANVERENE] | – | – | – | – | 8 | inactive | inactive | inactive | inactive | –
4 | CCCCC1=C(Br)/C(=C\Br)OC1=O [FIMBROLIDE] | – | – | 7 | 7 | – | inactive | inactive | – | – | inactive
5 | CCC[C@@H](O)C1=C(Br)/C(=C\Br)OC1=O [HYDROXYFIMBROLIDE] | 25 | 9 | 23 | 23 | 14 | – | – | – | – | –
6 | CC1=CC(=O)C=C(C/C=C(\C)CC/C=C(\C)CC/C=C(\C)CC/C=C(\C)C(=O)O)C1=O [MENZOQUINONE] | – | – | 6 | 8 | 7 | – | – | – | – | –
